Measurements as given in patent publication US20260013501A1, “HERBICIDAL DERIVATIVES” (SYNGENTA CROP PROTECTION AG, priority 2022, published 2026).

Legend:
Format in all cases: in vivo
[1] = test system: Amaranthus retoflexus (AMARE); assay: Post-emergence Test (Table B2), AMARE; design: key: five-point scale: 5=81-100%, 4=61-80%, 3=41-60%, 2=21-40%, 1=0-20% damage; conditions: evaluated after 13 days
Experimental: (§1) Seeds of a variety of test species are sown in standard soil in pots (Ipomoea hederacea (IPOHE), Zea mays (ZEAMX), Echinochloa crus-galli (ECHCG), Amaranthus palmeri (AMAPA), (Amaranthus retoflexus (AMARE), and (Setaria faberi (SETFA)). After 8 days cultivation under controlled conditions in a glasshouse (at 24° C./16° C., day/night; 14 hours light; 65% humidity), the plants are sprayed with an aqueous spray solution derived from the formulation of the technical active ingredient in acetone/water (50:50) solution containing 0.5% Tween 20 (polyoxyethelyene sorbitan monolaurate, CAS RN 9005-64-5). Rate of application is shown in g/ha in the tables below. The test plants are then grown in a glasshouse under controlled conditions in a glasshouse (at 24° C./16° C., day/night; 14 hours light; 65% humidity) and watered twice daily. After 13 days the test is evaluated for the percentage damage caused to the plant. The biological activities are shown in the following table on a five-point scale (5=81-100%; 4=61-80%; 3=41-60%; 2=21-40%; 1=0-20%; -=not tested).

[2] = test system: Amaranthus palmeri (AMAPA); assay: Post-emergence Test (Table B2), AMAPA; design: key: five-point scale: 5=81-100%, 4=61-80%, 3=41-60%, 2=21-40%, 1=0-20% damage; conditions: evaluated after 13 days
Experimental: as §1

[3] = test system: Setaria faberi (SETFA); assay: Post-emergence Test (Table B2), SETFA; design: key: five-point scale: 5=81-100%, 4=61-80%, 3=41-60%, 2=21-40%, 1=0-20% damage; conditions: evaluated after 13 days
Experimental: as §1

[4] = test system: Zea mays (ZEAMX); assay: Post-emergence Test (Table B2), ZEAMX; design: key: 5-point damage scale: 5=81-100%, 4=61-80%, 3=41-60%, 2=21-40%, 1=0-20%; conditions: evaluated after 13 days
In short: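 Score: % damage at 13 d on a 5-point scale (5=81-100%; 4=61-80%; 3=41-60%; 2=21-40%; 1=0-20%). Seeds sown in pots, sprayed with test article in acetone/water 50:50 + 0.5% Tween 20; rate in g/ha. Glasshouse 24/16 °C, 14 h light, 65% RH, watered twice daily.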

[5] = test system: Echinochloa crus-galli (ECHCG); assay: Post-emergence Test (Table B2), ECHCG; design: key: 5-point damage scale: 5=81-100%, 4=61-80%, 3=41-60%, 2=21-40%, 1=0-20%; conditions: evaluated after 13 days
Experimental: as §1

[6] = test system: Echinochloa crus-galli (ECHCG); assay: Pre-emergence Test (Table B1), ECHCG; conditions: evaluated after 13 days
[7] = test system: Amaranthus retoflexus (AMARE); assay: Pre-emergence Test (Table B1), AMARE; conditions: Rate 250 g/Ha, evaluated after 13 days
[8] = test system: Ipomoea hederacea (IPOHE); assay: Pre-emergence Test (Table B1), IPOHE; conditions: evaluated after 13 days
[9] = test system: Zea mays (ZEAMX); assay: Pre-emergence Test (Table B1), ZEAMX; conditions: evaluated after 13 days
[10] = test system: Ipomoea hederacea (IPOHE); assay: Post-emergence Test (Table B2), IPOHE; design: key: five-point scale: 5=81-100%, 4=61-80%, 3=41-60%, 2=21-40%, 1=0-20% damage; conditions: evaluated after 13 days
Experimental: as §1

[11] = test system: Amaranthus palmeri (AMAPA); assay: Pre-emergence Test (Table B1), AMAPA; conditions: Rate 250 g/Ha, evaluated after 13 days

CCn1c(Cc2cccc(C(F)(F)F)c2)cc(=O)c(C(=O)O)c1-c1ccc(Cl)c(Cl)c1 [Compound 8, 2-(3,4-dichlorophenyl)-1-ethyl-4-oxo-6-[[3-(trifluoromethyl)phenyl]methyl]pyridine-3-carboxylic acid]
0: percentage damage caused to the plant, AMARE ([1]; rate 250 g/Ha) | percentage damage caused to the plant, AMAPA ([2]; rate 250 g/Ha) | percentage damage caused to the plant, SETFA ([3]; rate 250 g/Ha) | percentage damage caused to the plant, ZEAMX ([4]; rate 250 g/Ha) | percentage damage caused to the plant, ECHCG ([5]; rate 250 g/Ha)

CCn1c(Cc2cccc(OC)c2)cc(=O)c(C(=O)O)c1-c1ccc(Cl)c(Cl)c1 [Compound 9, 2-(3,4-dichlorophenyl)-1-ethyl-6-[(3-methoxyphenyl)methyl]-4-oxo-pyridine-3-carboxylic acid]
0: percentage damage caused to the plant, AMARE ([1]; rate 250 g/Ha) | Pre-emergence Test, percentage damage caused to the plant (five-point scale), ECHCG ([6]; Rate 250 g/Ha) | Pre-emergence Test, percentage damage caused to the plant (five-point scale), AMARE [7] | percentage damage caused to the plant, SETFA ([3]; rate 250 g/Ha) | percentage damage caused to the plant, ZEAMX ([4]; rate 250 g/Ha) | Pre-emergence Test, percentage damage caused to the plant (five-point scale), IPOHE ([8]; Rate 250 g/Ha) | percentage damage caused to the plant, ECHCG ([5]; rate 250 g/Ha) | Pre-emergence Test, percentage damage caused to the plant (five-point scale), ZEAMX ([9]; Rate 250 g/Ha)

CCn1c(Cc2ccccc2Cl)cc(=O)c(C(=O)O)c1-c1ccc(Cl)c(Cl)c1 [Compound 16, 6-[(2-chlorophenyl)methyl]-2-(3,4-dichlorophenyl)-1-ethyl-4-oxo-pyridine-3-carboxylic acid]
0: percentage damage caused to the plant, AMARE ([1]; rate 1000 g/Ha) | Pre-emergence Test, percentage damage caused to the plant (five-point scale), ECHCG ([6]; Rate 1000 g/Ha) | percentage damage caused to the plant, AMAPA ([2]; rate 1000 g/Ha) | percentage damage caused to the plant, SETFA ([3]; rate 1000 g/Ha) | percentage damage caused to the plant, ZEAMX ([4]; rate 1000 g/Ha) | Pre-emergence Test, percentage damage caused to the plant (five-point scale), IPOHE ([8]; Rate 1000 g/Ha) | percentage damage caused to the plant, ECHCG ([5]; rate 1000 g/Ha)

CCn1c(Cc2cccc(C(C)C)c2)cc(=O)c(C(=O)O)c1-c1ccc(Cl)c(Cl)c1 [Compound 23, 2-(3,4-dichlorophenyl)-1-ethyl-6-[(3-isopropylphenyl)methyl]-4-oxo-pyridine-3-carboxylic acid]
0: percentage damage caused to the plant, IPOHE ([10]; rate 1000 g/Ha) | percentage damage caused to the plant, ZEAMX ([4]; rate 1000 g/Ha) | percentage damage caused to the plant, ECHCG ([5]; rate 1000 g/Ha)

CCn1c(Cc2ccccc2OC)cc(=O)c(C(=O)O)c1-c1ccc(Cl)c(Cl)c1 [Compound 24, 2-(3,4-dichlorophenyl)-1-ethyl-6-[(2-methoxyphenyl)methyl]-4-oxo-pyridine-3-carboxylic acid]
0: percentage damage caused to the plant, IPOHE ([10]; rate 1000 g/Ha) | percentage damage caused to the plant, ZEAMX ([4]; rate 1000 g/Ha) | percentage damage caused to the plant, ECHCG ([5]; rate 1000 g/Ha)

CCn1c(Cc2ccc(C3CC3)cc2)cc(=O)c(C(=O)O)c1-c1ccc(Cl)c(Cl)c1 [Compound 25, 6-[(4-cyclopropylphenyl)meth-yl]-2-(3,4-dichlorophenyl)-1-ethyl-4-oxo-pyridine-3-carboxylic acid]
0: percentage damage caused to the plant, IPOHE ([10]; rate 1000 g/Ha) | percentage damage caused to the plant, ECHCG ([5]; rate 1000 g/Ha)

CCn1c(Cc2cccc(SC)c2)cc(=O)c(C(=O)O)c1-c1ccc(Cl)c(Cl)c1 [Compound 31, 2-(3,4-dichlorophenyl)-1-ethyl-6-[(3-methylsulfanylphenyl)methyl]-4-oxo-pyridine-3-carboxylic acid]
0: percentage damage caused to the plant, IPOHE ([10]; rate 1000 g/Ha) | percentage damage caused to the plant, ZEAMX ([4]; rate 1000 g/Ha) | percentage damage caused to the plant, ECHCG ([5]; rate 1000 g/Ha)

CCn1c(Cc2ccc(OC)c(OC)c2)cc(=O)c(C(=O)O)c1-c1ccc(Cl)c(Cl)c1 [Compound 34, 2-(3,4-dichlorophenyl)-6-[(3,4-dimethoxyphenyl)meth-yl]-1-ethyl-4-oxo-pyridine-3-carboxylic acid]
0: percentage damage caused to the plant, IPOHE ([10]; rate 1000 g/Ha) | percentage damage caused to the plant, ZEAMX ([4]; rate 1000 g/Ha) | percentage damage caused to the plant, ECHCG ([5]; rate 1000 g/Ha)

CCn1c(Cc2cccc(OC)c2OC)cc(=O)c(C(=O)O)c1-c1ccc(Cl)c(Cl)c1 [Compound 38, 2-(3,4-dichlorophenyl)-6-[(2,3-dimethoxyphenyl)meth-yl]-1-ethyl-4-oxo-pyridine-3-carboxylic acid]
0: percentage damage caused to the plant, IPOHE ([10]; rate 1000 g/Ha) | percentage damage caused to the plant, ZEAMX ([4]; rate 1000 g/Ha) | percentage damage caused to the plant, ECHCG ([5]; rate 1000 g/Ha)

CCn1c(Cc2ccc(C)cc2F)cc(=O)c(C(=O)O)c1-c1ccc(Cl)c(Cl)c1 [Compound 67, 2-(3,4-dichlorophenyl)-1-3ethyl-6-[(2-fluoro-4-methyl-phenyl)methyl]-4-oxo-pyridine-3-3-carboxylic acid]
0: Pre-emergence Test, percentage damage caused to the plant (five-point scale), AMAPA [11] | Pre-emergence Test, percentage damage caused to the plant (five-point scale), AMARE [7] | percentage damage caused to the plant, AMAPA ([2]; rate 250 g/Ha) | percentage damage caused to the plant, SETFA ([3]; rate 250 g/Ha) | Pre-emergence Test, percentage damage caused to the plant (five-point scale), IPOHE ([8]; Rate 250 g/Ha) | percentage damage caused to the plant, ECHCG ([5]; rate 250 g/Ha) | Pre-emergence Test, percentage damage caused to the plant (five-point scale), ZEAMX ([9]; Rate 250 g/Ha)

CCn1c(Cc2ccc(OC)cc2F)cc(=O)c(C(=O)O)c1-c1ccc(Cl)c(Cl)c1 [Compound 89, 2-(3,4-dichlorophenyl)-1-ethyl-6-[(2-fluoro-4-methoxy-phenyl)methyl]-4-oxo-pyridine-3-carboxylic acid]
0: percentage damage caused to the plant, AMARE ([1]; rate 250 g/Ha) | percentage damage caused to the plant, AMAPA ([2]; rate 250 g/Ha) | percentage damage caused to the plant, SETFA ([3]; rate 250 g/Ha) | Pre-emergence Test, percentage damage caused to the plant (five-point scale), IPOHE ([8]; Rate 250 g/Ha) | percentage damage caused to the plant, ECHCG ([5]; rate 250 g/Ha) | Pre-emergence Test, percentage damage caused to the plant (five-point scale), ZEAMX ([9]; Rate 250 g/Ha)

CCn1c(Cc2ccc(F)c(C(=O)O)n2)cc(=O)c(C(=O)O)c1-c1ccc(Cl)c(Cl)c1 [Compound 98, 6-[(6-carboxy-5-fluoro-2-pyridyl)methyl]-2-(3,4-dichlorophenyl)-1-ehtyl-4-oxo-pyridine-3-carboxylic acid]
0: percentage damage caused to the plant, IPOHE ([10]; rate 1000 g/Ha) | percentage damage caused to the plant, ZEAMX ([4]; rate 1000 g/Ha) | Pre-emergence Test, percentage damage caused to the plant (five-point scale), ZEAMX ([9]; Rate 1000 g/Ha)

CCn1c(Cc2cc(O)cc(F)n2)cc(=O)c(C(=O)O)c1-c1ccc(Cl)c(Cl)c1 [Compound 104, 2-(3,4-dichlorophenyl)-1-ethyl-6-[(6-fluoro-4-hydroxy-2-pyridyl)methyl]-4-oxo-pyridine-3-carboxylic acid]
0: percentage damage caused to the plant, IPOHE ([10]; rate 1000 g/Ha)

CCn1c(Cc2ccc(C#N)c(=O)[nH]2)cc(=O)c(C(=O)O)c1-c1ccc(Cl)c(Cl)c1 [Compound 114, 6-[(5-cyano-6-oxo-1H-pyridin-2-yl)methyl]-2-(3,4-dichlorophenyl)-1-ethyl-4-oxo-pyridine-3-carboxylic acid]
0: percentage damage caused to the plant, AMARE ([1]; rate 250 g/Ha) | percentage damage caused to the plant, AMAPA ([2]; rate 250 g/Ha) | percentage damage caused to the plant, SETFA ([3]; rate 250 g/Ha) | percentage damage caused to the plant, ZEAMX ([4]; rate 250 g/Ha) | percentage damage caused to the plant, ECHCG ([5]; rate 250 g/Ha)

CCn1c(Cc2cccc(Cl)n2)cc(=O)c(C(=O)O)c1-c1ccc(OC(C)C)c(Cl)c1 [Compound 132, 2-(3-chloro-4-isopropoxy-phenyl)-6-[(6-chloro-2-pyridyl)methyl]-1-ethyl-4-oxo-pyridine-3-carboxylic acid]
0: percentage damage caused to the plant, IPOHE ([10]; rate 250 g/Ha) | Pre-emergence Test, percentage damage caused to the plant (five-point scale), ECHCG ([6]; Rate 250 g/Ha) | Pre-emergence Test, percentage damage caused to the plant (five-point scale), AMARE [7] | percentage damage caused to the plant, AMAPA ([2]; rate 250 g/Ha) | Pre-emergence Test, percentage damage caused to the plant (five-point scale), IPOHE ([8]; Rate 250 g/Ha) | Pre-emergence Test, percentage damage caused to the plant (five-point scale), ZEAMX ([9]; Rate 250 g/Ha)
